Series [1] concerns db/db mice. Briefly: Long-term treatment of diabetic db/db mice: blood glucose and blood insulin. In kind it is in vivo, mouse. As to the method: (§1) FIGS. 1A-F show the anti-diabetic effects of cytopiloyne in db/db mice during long-term treatment. (A) Chemical structure of cytopiloyne (2-β-D-glucopyranosyloxy-1-hydroxytrideca-5,7,9,11-tetrayne). (B) Four groups of 6-to-8-week-old diabetic db/db mice were tube-fed with vehicle, cytopiloyne (CP, 0.5 and 2.5 mgkg^−1 day^−1) or glimepiride (GLM, 2.5 mgkg^−1 day^−1) from 0 to 42 days post-treatment. Blood glucose (BG) levels in these mice were measured. (C) Blood insulin levels from the mice of FIG. 1B. (D) IPGTT was performed in the db/db mice of FIG. 1B on day 0, 28 and 42, and blood glucose levels were monitored for 3.5 h. […] Results from 3 independent experiments are expressed as mean±SEM, and P<0.05 was considered to be statistically significant (*). […]
After 0.5 h, the levels of postprandial blood sugar and insulin from the mice were monitored for additional 4 h. For continued administration, diabetic db/db males were grouped and tube-fed with vehicle, cytopiloyne (0.5 or 2.5 mgkg^−1 day^−1) or glimepiride (2.5 mg kg^−1 day^−1) for the indicated time, while levels of blood sugar, insulin, and glycosylated HbA1c, and glucose tolerance in these mice were determined. […] Unless indicated otherwise, the mice were fasted for 16 h, then Postprandial blood glucose and insulin in these mice were measured. […]

Series [2] relates to HIT-T15 cells. Briefly: Insulin secretion of β-cell line with PMA, GF109203X and cytopiloyne (ELISA). The class given is cell-based, rat. The settings on record: FIG. 6A; glucose 16.7 mM.
In series [3] the test system is PKCα. Briefly: PKCα translocation and phosphorylation (Western blot) in RIN-m5F cells. In kind it is cell-based, rat. The following applies: PMA 1 μM, glucose 16.7 mM. The method, then: FIGS. 5A-D show the effects of cytopiloyne on calcium mobilization, DAG generation and PKCa activation. (A) After Fura 2-AM loading, RIN-m5F cells were stimulated with 16.7 mM glucose (HG) and cytopiloyne at 7, 14 and 28 μM. Level of intracellular calcium, as shown by the 340/380 nm ratio, was detected using a fluorescence spectrophotometer. (B) RIN-m5F cells were pulsed with ^3H-myristic acid (5 Cim1^−1) for 16 hours. After washing, the cells were stimulated with glucose, cytopiloyne, PMA and glimepiride. Total lipids were separated on a silica thin layer plate. DAG and cholesterol were visualized with iodine vapor and identified by their standards. (C) RIN-m5F cells were incubated with vehicle (Mock), cytopiloyne (CP, 3, 7 and 14 μM), PMA (1 μM) and 16.7 mM (HG). Membrane or cytosolic proteins were subjected to Western blot with anti-PKCα and anti-Actin antibodies. (D) RIN-m5F cells were incubated with vehicle (Mock), cytopiloyne (CP 7 μM) and PMA (1 μM). After lysis, total lystaes were subjected to Western blot with anti-PKCα, anti-phospho-PKCα and anti-Actin antibodies.
Background: A western blot detects proteins with antibodies after separation by electrophoresis.

Series [4] deals with db/db mice. The series is described as follows: Intraperitoneal glucose tolerance test (IPGTT) in db/db mice. In kind it is in vivo, mouse. The following applies: 2.5 mgkg^−1 day^−1 for 6 weeks, day 42, db/db mice. As to the method:
as §1, with “h. (E) The percentage of glycosylated HbAlc of whole blood from the mice of FIG. 1B on day 0 and 42. (F) Pancreata of 8- and 16-week-old db/db males, which had received the same treatment as FIG. 1B for 2 (images a-h) and 10 (images i-p) weeks, were stained with hematoxylin and eosin (H&E, images a, c, e, g, i, k, m and o) or hematoxylin and anti-insulin (H&I, images b, d, f, h, j, l, n and p).” for “h.”
Male db/db mice were administered either vehicle, cytopiloyne at 0.5 and 2.5 mgkg^−1 day^−1 or glimepiride at 2.5 mgkg^−1 day^−1 for the indicated time. […] The levels of blood sugar were monitored from −0.5 to 3 h after glucose administration.

Series [5] concerns 3T3-L1 cells. The class given is cell-based, mouse. The following applies: differentiating 3T3-L1 cells; glimepiride 10 μM, rosiglitazone 1 μM, cytopiloyne 50 μM.
Series [6] has as its system rat pancreatic islet cells. Briefly: Intracellular staining for insulin and FACS in rat pancreatic islet cells. The class given is cell-based. The following applies: 28 μM, brefeldin A, 24 h. As to the method: FIGS. 4A-C show an increase in insulin mRNA and protein content by cytopiloyne in pancreatic islet cells. (A) HIT-T15 β-cells transfected with phINS-Luc and pRL-TK plasmids were incubated with vehicle (NS), glimepiride (GLM, 10 μM), high glucose (HG, 16.7 mM) or cytopiloyne at 7, 14 or 28 μM. Ten μg of cell lysates from these cells underwent to dual luciferase assays. […] (C) Rat pancreatic islet cells were treated with vehicle, glucose (3.3 mM (LG) or 16.7 mM (HG)) or cytopiloyne (CP, 7, 14 and 28 μM) in the presence of brefeldin A for 24 h. After anti-insulin antibody staining, these cells underwent FACS analysis. The percentage of insulin-positive β-cells is shown. All the results from 3 independent experiments are expressed as mean±SEM, and P<0.05 was considered to be statistically significant (*).
The islets were disrupted into individual cells and underwent intracellular staining with anti-insulin antibody and FACS analysis.

Entries after “also recorded” stand apart in the source; their conditions may differ.

In the case of `CC#CC#CC#CC#CCCC(CO)O[C@@H]1O[C@H](CO)[C@@H](O)[C@H](O)[C@H]1O` (stereo partly drawn) [cytopiloyne, 2-β-D-glucopyranosyloxy-1-hydroxytrideca-5,7,9,11-tetrayne], the “blood insulin levels, long-term treatment” value in series [1] (0.5 and 2.5 mgkg^−1 day^−1, db/db mice (FIG. 1C)) is given as “increased blood insulin levels to a greater extent than glimepiride”. For the same compound, in series [1] (2.5 mgkg^−1 day^−1, long-term, fed db/db mice (FIG. 1B)), the “blood sugar-lowering / anti-diabetic effect compared with glimepiride 2.5 mgkg^−1” value was “slightly therapeutically better than glimepiride at 2.5 mgkg^−1; also recorded: modestly better anti-diabetic effects at the same dose”. Also, the “insulin secretion in β-cell line” value in series [2] is recorded as “stimulated insulin secretion”. Besides, the “phosphorylation of PKCα” value in series [3] (cytopiloyne 7 μM) was “increased phosphorylation of PKCα”. Also, in series [3] (cytopiloyne 3, 7 and 14 μM), the “translocation of PKCα from cytoplasm to membrane” value was “It was the case”. In series [4], the “glucose tolerance (IPGTT)” value is given as “improved glucose tolerance in db/db mice to a greater extent than glimepiride”. The “lipid accumulation (lipid droplets, Oil red O)” value in series [5] is reported as “same basal level of lipid droplets as the control”. Also, the “intracellular insulin levels compared to the vehicle treatment” value in series [6] is given as “fivefold”.
